The values that follow come from ChEMBL document CHEMBL4739717, “Methods of treating cartilage disorders through inhibition of clk and dyrk” (2020).

Assay [1] is described as follows: Effect on Wnt signaling pathway in human SW480 cells harbouring TCF/LEF luciferase reporter gene and SP5-Luc reporter gene incubated for 36 to 48 hrs by luminescence assay. The format is cell-based.
Assay [2] addresses Dual specificity tyrosine-phosphorylation-regulated kinase 1A (Homo sapiens, UniProt Q13627). The assay is described as follows: Inhibition of recombinant DYRK1A (unknown origin) using Ser/Thr 18 peptide as substrate incubated for 1 hr in presence of ATP by FRET assay.
The nature of assay [3]: Induction of chondrogenesis in human MSC assessed as incubated for 6 days by rhodamine B and Nile red staining based imaging analysis. The format is functional. The settings on record: bmmsc.
The nature of assay [4]: Induction of chondrogenesis in human MSC assessed as maximum activity at 300 nM incubated for 6 days by rhodamine B and Nile red staining based imaging analysis relative to control. The format is functional. As to conditions: BMMSC, 144 h, time 6 day.

On to `CC(C)Nc1cncc(-c2ccc3[nH]nc(-c4nc5c(-c6ccoc6)nccc5[nH]4)c3c2)c1`, for which the results for the EC50 in assay [1], in assay [2] and in assay [3] were 43.5 nM, 44 nM and 30 nM, respectively. For the same compound, the Emax at 0.3 µM in assay [4] stood at 90.2%.
`CN1CCN(c2nccc3[nH]c(-c4n[nH]c5ccc(-c6cncc(NC(=O)CC7CCNCC7)c6)cc45)cc23)CC1`: the 50% effective concentration (EC50) was > 10000 nM in assay [1] and 25 nM in assay [2]. In addition, the Emax at 0.3 µM in assay [4] stood at 42.8%.
The matching figures for `O=C(Nc1cncc(-c2ccc3[nH]nc(-c4nc5ccncc5[nH]4)c3c2)c1)C1CC1`: 8 nM, 42 nM and 93.8%.
The matching figures for `O=C(Nc1cncc(-c2cnc3[nH]nc(-c4nc5c(-c6cccnc6)cncc5[nH]4)c3c2)c1)C1CC1`: 23.3 nM, 14 nM and 86.3%.
The matching figures for `CCCCC(=O)Nc1cncc(-c2cnc3[nH]nc(-c4cc5cnccc5[nH]4)c3c2)c1`: 1470 nM, 3 nM and 30.8%.
As for `Nc1cncc(-c2cnc3[nH]nc(-c4nc5c(-c6ccccc6F)ccnc5[nH]4)c3c2)c1`, the EC50 in assay [1] was 12.3 nM; in assay [2] it was 50 nM; in assay [3], 300 nM. Also, the Emax at 0.3 µM in assay [4] was 59.9%.
Consider `c1cncc(-c2ccnc3[nH]c(-c4n[nH]c5cnc(-c6cncnc6)cc45)cc23)c1`, for which the values for the concentration giving a half-maximal response (EC50) in assay [1] and in assay [2] were > 10000 nM and 100 nM, respectively. For the same compound, the Emax at 0.3 µM in assay [4] was 49.6%.
The matching figures for `O=C(Nc1cncc(-c2cc3c(-c4cc5c(N6CCCCC6)nccc5[nH]4)n[nH]c3cn2)c1)C1CCC1`: 4070 nM, 23 nM and 42.4%.
The matching figures for `CC(C)CC(=O)Nc1cncc(-c2ccc3[nH]nc(-c4cc5c(-c6ccccc6F)nccc5[nH]4)c3n2)c1`: 605 nM, 23 nM and 36.3%.
Consider `Nc1cncc(-c2ccc3[nH]nc(-c4nc5c(-c6ccccc6F)cncc5[nH]4)c3n2)c1`, for which the figures for the 50% effective concentration (EC50) in assay [1], in assay [2] and in assay [3] were > 10000 nM, 7 nM and 10 nM, respectively. For the same compound, the maximal response (Emax) at 0.3 µM in assay [4] was found to be 98.2%.
As to `CC(C)C(=O)Nc1cncc(-c2cc3c(-c4cc5c(-c6cccc(F)c6)cncc5[nH]4)n[nH]c3cn2)c1`, the results for the 50% effective concentration (EC50) in assay [1] and in assay [2] were 1730 nM and 65 nM, respectively. Also, the Emax at 0.3 µM in assay [4] was determined as 42.2%.
Consider `CN(C)Cc1cncc(-c2cc3c(-c4nc5c(-c6cccc(F)c6)cccc5[nH]4)n[nH]c3cn2)c1`, for which the values for the half-maximal effective concentration (EC50) in assay [1], in assay [2] and in assay [3] were 82.2 nM, 15 nM and 100 nM, respectively. For the same compound, the maximum response (Emax) at 0.3 µM in assay [4] was determined as 311%.
Take `c1cncc(-c2ccnc3[nH]c(-c4n[nH]c5ncc(-c6cncc(CN7CCCCC7)c6)cc45)cc23)c1`: the concentration giving a half-maximal response (EC50) in assay [1] was > 10000 nM; in assay [2], 15 nM. The maximum response (Emax) at 0.3 µM in assay [4] came to 43.9%.
The matching figures for `FC1(F)CCN(Cc2cncc(-c3ccc4[nH]nc(-c5cc6c(-c7cccnc7)cncc6[nH]5)c4n3)c2)C1`: 3850 nM, 30 nM and 23.3%.
The matching figures for `CC(C)(C)CC(=O)Nc1cncc(-c2cnc3[nH]nc(-c4cc5cnccc5[nH]4)c3c2)c1`: 605 nM, 2 nM and 7.07%.
The matching figures for `O=C(Nc1cncc(-c2cnc3[nH]nc(-c4nc5c(-c6cccc(F)c6)cncc5[nH]4)c3c2)c1)N1CCOCC1`: 9 nM, 14 nM and 96.8%.
Consider `CN1CCN(c2ccnc3[nH]c(-c4n[nH]c5ncc(-c6cn[nH]c6)cc45)cc23)CC1`, for which the values for the concentration for a half-maximal effect (EC50) in assay [1] and in assay [2] were > 10000 nM and 35 nM, respectively. Moreover, the Emax at 0.3 µM in assay [4] worked out at 20.1%.
As to `CC(C)C(=O)Nc1cncc(-c2ccc3[nH]nc(-c4cc5c(N6CCN(C)CC6)nccc5[nH]4)c3c2)c1`, the concentration for a half-maximal effect (EC50) in assay [1] worked out at 7690 nM; in assay [2] it was 15 nM. In addition, the Emax at 0.3 µM in assay [4] stood at 21%.
The matching figures for `FC1(F)CCN(Cc2cncc(-c3ccc4[nH]nc(-c5cc6c(-c7cccnc7)ccnc6[nH]5)c4c3)c2)C1`: 523 nM, 10 nM and 20.3%.
The matching figures for `CC(C)(C)C(=O)Nc1cncc(-c2cnc3[nH]nc(-c4cc5c(-c6ccncc6)cncc5[nH]4)c3c2)c1`: > 10000 nM, 5 nM and 33.6%.
The matching figures for `c1cncc(-c2cncc3[nH]c(-c4n[nH]c5ncc(-c6cncnc6)cc45)cc23)c1`: > 10000 nM, 7 nM and 24.1%.
For the compound `CCC(=O)Nc1cncc(-c2cnc3[nH]nc(-c4cc5cnccc5[nH]4)c3c2)c1`, the 50% effective concentration (EC50) worked out at 960 nM in assay [1] and 2 nM in assay [2]. For the same compound, the Emax at 0.3 µM in assay [4] came out at 16.9%.
The matching figures for `CC(C)Nc1cncc(-c2ccc3[nH]nc(-c4cc5c(-c6cccnc6)ccnc5[nH]4)c3c2)c1`: > 10000 nM, 20 nM and 45.5%.
The matching figures for `CN1CCN(c2nccc3[nH]c(-c4n[nH]c5ccc(-c6cncc(CN7CCCC7)c6)cc45)cc23)CC1`: 9380 nM, 48 nM and 31%.
The matching figures for `Nc1cncc(-c2cc3c(-c4cc5c(-c6ccccc6F)cncc5[nH]4)n[nH]c3cn2)c1`: 1630 nM, 40 nM and 15.5%.
`CN1CCN(c2ccnc3[nH]c(-c4n[nH]c5ccc(-c6cncc(NC(=O)CC(C)(C)C)c6)nc45)cc23)CC1`: the half-maximal effective concentration (EC50) in assay [1] is 3870 nM; in assay [2] it was 10 nM. Also, the Emax at 0.3 µM in assay [4] was found to be 30.3%.
The matching figures for `c1cncc(-c2ccnc3[nH]c(-c4n[nH]c5cnc(-c6cncc(CN7CCCC7)c6)cc45)cc23)c1`: > 10000 nM, 72 nM and 16.7%.
In the case of `Cc1cncc(NC(=O)c2n[nH]c3ccc(-c4cncc(CN5CCCCC5)c4)cc23)c1`, the EC50 in assay [1] stood at 59 nM; in assay [3], 300 nM. In assay [4], the Emax at 0.3 µM was 68.3%.
`CC(C)(C)C(=O)Nc1cncc(-c2cc3c(-c4nc5c(-c6ccc(F)s6)nccc5[nH]4)n[nH]c3cn2)c1`: the concentration giving a half-maximal response (EC50) in assay [1] was 35.3 nM; in assay [2], 30 nM. The Emax at 0.3 µM in assay [4] was determined as 40.9%.
The matching figures for `COc1cncc(-c2ccc3[nH]nc(-c4cc5c(-c6ccoc6)nccc5[nH]4)c3c2)c1`: 643 nM, 35 nM and 35.5%.
`CN1CCN(c2ccc(NC(=O)c3n[nH]c4ccc(-c5cncc(CN6CCC(F)(F)C6)c5)cc34)cn2)CC1`: the EC50 in assay [1] worked out at 4 nM; in assay [3] it was 30 nM. Moreover, the Emax at 0.3 µM in assay [4] turned out to be 80.9%.
On to `c1ncc(-c2ccc3[nH]nc(-c4cc5c(N6CCCCC6)cncc5[nH]4)c3c2)cc1CN1CCCC1`, for which the EC50 stood at 1840 nM in assay [1] and 24 nM in assay [2]. Besides, in assay [4], the Emax at 0.3 µM worked out at 24.7%.
The matching figures for `CN(C)Cc1cncc(-c2cc3c(-c4cc5c(-c6ccncc6)ccnc5[nH]4)n[nH]c3cn2)c1`: > 10000 nM, 71 nM and 33.4%.
The matching figures for `CCCC(=O)Nc1cncc(-c2cnc3[nH]nc(-c4nc5c(-c6ccccc6F)cncc5[nH]4)c3c2)c1`: 8 nM, 70 nM and 82.8%.
The matching figures for `Cc1ccncc1-c1cnc2[nH]nc(-c3cc4c(-c5cccnc5)cncc4[nH]3)c2c1`: 2250 nM, 17 nM and 17.4%.
Regarding `O=C(Nc1cncc(-c2cnc3[nH]nc(-c4cc5c(-c6cccnc6)cccc5[nH]4)c3c2)c1)C1CCC1`, the 50% effective concentration (EC50) was determined as 202 nM in assay [1] and 25 nM in assay [2]. Besides, the maximal effect (Emax) at 0.3 µM in assay [4] was 41.3%.
On to `Nc1cncc(-c2ccc3[nH]nc(-c4cc5c(-c6ccccc6F)ccnc5[nH]4)c3c2)c1`, for which the concentration for a half-maximal effect (EC50) in assay [1] came to 131 nM; in assay [2], 34 nM. The maximal effect (Emax) at 0.3 µM in assay [4] was found to be 23.5%.
The matching figures for `CN(C)Cc1cncc(-c2ccc3[nH]nc(-c4cc5c(-c6cccc(F)c6)nccc5[nH]4)c3c2)c1`: 2940 nM, 93 nM and 42%.
The matching figures for `CN1CCN(c2cncc3[nH]c(-c4n[nH]c5ccc(-c6cccnc6)cc45)nc23)CC1`: 52 nM, 2 nM and 80.6%.
The matching figures for `CC(C)Nc1cncc(-c2cnc3[nH]nc(-c4cc5c(N6CCCCC6)nccc5[nH]4)c3c2)c1`: 3410 nM, 70 nM and 33.6%.
Consider `CC1CCN(Cc2cncc(-c3ccc4[nH]nc(C(=O)Nc5cccnc5)c4c3)c2)CC1`, for which the half-maximal effective concentration (EC50) in assay [1] worked out at 7 nM; in assay [3], 30 nM. For the same compound, the Emax at 0.3 µM in assay [4] was 94.4%.
On to `CC(C)C(=O)Nc1cncc(-c2cc3c(-c4cc5c(-c6ccncc6)nccc5[nH]4)n[nH]c3cn2)c1`, for which the values for the EC50 in assay [1] and in assay [2] were > 10000 nM and 45 nM, respectively. In addition, the maximal effect (Emax) at 0.3 µM in assay [4] amounted to 32.1%.
With `COc1ccc(NC(=O)c2n[nH]c3ccc(-c4cncc(CN5CCC(F)(F)C5)c4)cc23)cn1`, the figures for the half-maximal effective concentration (EC50) in assay [1] and in assay [3] were 5 nM and 100 nM, respectively. The Emax at 0.3 µM in assay [4] amounted to 72.2%.
`FC1(F)CCN(Cc2cncc(-c3cnc4[nH]nc(-c5cc6c(-c7ccncc7)cncc6[nH]5)c4c3)c2)C1`: the 50% effective concentration (EC50) stood at 1510 nM in assay [1] and 13 nM in assay [2]. Moreover, the Emax at 0.3 µM in assay [4] was determined as 36.5%.
The matching figures for `CN(C)Cc1cncc(-c2ccc3[nH]nc(-c4cc5c(-c6ccncc6)cncc5[nH]4)c3c2)c1`: 1060 nM, 27 nM and 17.8%.

The EC50 is the concentration giving half of the maximal effect. What is called Emax is the maximal effect, on the per cent scale that the assay sets.
